Laboratory results reported in PubChem BioAssay AID2060890 (Molecular Pharmacology Branch, DTP, NCI, 2025).
pIC50: −log10 of the molar value. Where “and” joins values, the source holds several entries; their conditions need not be identical. Equal entries are not always repeated.

System: LG0703-F948-PDC complex spheroid viability
Assay: Anticancer human tumor LG0703-F948-PDC patient-derived lung adenocarcinoma cell line growth inhibition [RAS]
Conditions: for viability, T/C: stronger effect = lower value; active = viability on the fitted dose curve at most 10% of control; inactive = the rest
Summary of the method: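 Tumour cells grown as complex spheroids with HUVEC endothelial cells and mesenchymal stem cells, treated with RAS pathway inhibitor combinations. Each agent spans half-log steps from near clinical Cmax, or 10 microM where Cmax is unknown.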
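Note: spheroids exposed to agents for 7 days.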
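Throughout, for viability, T/C: 100% = DMSO vehicle wells.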

CC(=O)OC12COC1CC(O)C1(C)C(=O)C(O)C3=C(C)C(OC(=O)C(O)C(NC(=O)OC(C)(C)C)c4ccccc4)CC(O)(C(OC(=O)c4ccccc4)C21)C3(C)C (centres undefined) + C=CC(=O)N1CCN(c2nc(OCC3CCCN3C)nc3c(F)c(-c4nc(N)cc(C)c4C(F)(F)F)c(Cl)cc23)C(C)C1
> 7.50: pIC50 (curve of first compound, second compound 0.00316 µM) | pIC50 (curve of first compound, second compound 0.01 µM) | pIC50 (curve of first compound, second compound 0.0316 µM) | pIC50 (curve of first compound, second compound 0.1 µM) | pIC50 (curve of first compound, second compound 0.316 µM) | pIC50 (curve of first compound, second compound 1 µM)
inactive: viability, T/C (second compound 0.00316 µM, first compound 0.0316 µM) 26.8% | viability, T/C (second compound 0.00316 µM, first compound 0.1 µM) 25.4% | viability, T/C (second compound 0.00316 µM, first compound 0.316 µM) 22.2% | viability, T/C (second compound 0.00316 µM, first compound 1 µM) 23.7% | viability, T/C (second compound 0.00316 µM, first compound 3.16 µM) 29.5% | viability, T/C (second compound 0.00316 µM, first compound 10 µM) 27.1% | viability, T/C (second compound 0.01 µM, first compound 0.0316 µM) 23.1% | viability, T/C (second compound 0.01 µM, first compound 0.1 µM) 24.4% | viability, T/C (second compound 0.01 µM, first compound 0.316 µM) 26.5% | viability, T/C (second compound 0.01 µM, first compound 1 µM) 23.5% | viability, T/C (second compound 0.01 µM, first compound 3.16 µM) 30.9% | viability, T/C (second compound 0.01 µM, first compound 10 µM) 27.5% | viability, T/C (second compound 0.0316 µM, first compound 0.0316 µM) 28.5% | viability, T/C (second compound 0.0316 µM, first compound 0.1 µM) 26.2% | viability, T/C (second compound 0.0316 µM, first compound 0.316 µM) 26.1% | viability, T/C (second compound 0.0316 µM, first compound 1 µM) 30.7% | viability, T/C (second compound 0.0316 µM, first compound 3.16 µM) 22.3% | viability, T/C (second compound 0.0316 µM, first compound 10 µM) 29% | viability, T/C (second compound 0.1 µM, first compound 0.0316 µM) 22.1% | viability, T/C (second compound 0.1 µM, first compound 0.1 µM) 26.4% | viability, T/C (second compound 0.1 µM, first compound 0.316 µM) 28.6% | viability, T/C (second compound 0.1 µM, first compound 1 µM) 28.8% | viability, T/C (second compound 0.1 µM, first compound 3.16 µM) 27.4% | viability, T/C (second compound 0.1 µM, first compound 10 µM) 24.7% | viability, T/C (second compound 0.316 µM, first compound 0.0316 µM) 24.9% | viability, T/C (second compound 0.316 µM, first compound 0.1 µM) 24% | viability, T/C (second compound 0.316 µM, first compound 0.316 µM) 26.4% | viability, T/C (second compound 0.316 µM, first compound 1 µM) 30.4% | viability, T/C (second compound 0.316 µM, first compound 3.16 µM) 28.1% | viability, T/C (second compound 0.316 µM, first compound 10 µM) 23.6% | viability, T/C (second compound 1 µM, first compound 0.0316 µM) 31.5% | viability, T/C (second compound 1 µM, first compound 0.1 µM) 27.3% | viability, T/C (second compound 1 µM, first compound 0.316 µM) 27.9% | viability, T/C (second compound 1 µM, first compound 1 µM) 29.2% | viability, T/C (second compound 1 µM, first compound 3.16 µM) 33.5% | viability, T/C (second compound 1 µM, first compound 10 µM) 32%

CCC(CC)c1cc(NC2CCC(N)C2)n2nccc2n1 (centres undefined)
5.82 and 5.97 and 5.86: pIC50 (curve of compound)
active: viability, T/C (compound 3.16 µM) 4.37% and 1.19% and 2.28% | viability, T/C (compound 10 µM) 0.41% and 0.27% and 0.38%
inactive: viability, T/C (compound 0.0316 µM) 85.9% and 96.8% and 101% | viability, T/C (compound 0.1 µM) 94.6% and 93.7% and 90% | viability, T/C (compound 0.316 µM) 75.7% and 85.7% and 97% | viability, T/C (compound 1 µM) 76.4% and 54.7% and 68.8%
